According to US20250026746A1, “ENHANCERS OF PARTICULATE GUANYLYL CYCLASE RECEPTOR A” (Mayo Foundation for Medical Education and Research, priority 2021, published 2025):

Experiments:
[1] = target: T1, extracellular domain human GC-A recombinant protein (Homo sapiens, UniProt P16066); assay: Surface plasmon resonance binding to GC-A receptor; details: acetate salt, SPR 25° C., 1:1 Langmuir model; for kon: read-out: ka association rate; for koff: read-out: kd dissociation rate
T1 construct: extracellular domain human GC-A recombinant protein; purchased My BioSource, Inc. San Diego, CA
T1 sequence (P16066 33-473 limits assumed): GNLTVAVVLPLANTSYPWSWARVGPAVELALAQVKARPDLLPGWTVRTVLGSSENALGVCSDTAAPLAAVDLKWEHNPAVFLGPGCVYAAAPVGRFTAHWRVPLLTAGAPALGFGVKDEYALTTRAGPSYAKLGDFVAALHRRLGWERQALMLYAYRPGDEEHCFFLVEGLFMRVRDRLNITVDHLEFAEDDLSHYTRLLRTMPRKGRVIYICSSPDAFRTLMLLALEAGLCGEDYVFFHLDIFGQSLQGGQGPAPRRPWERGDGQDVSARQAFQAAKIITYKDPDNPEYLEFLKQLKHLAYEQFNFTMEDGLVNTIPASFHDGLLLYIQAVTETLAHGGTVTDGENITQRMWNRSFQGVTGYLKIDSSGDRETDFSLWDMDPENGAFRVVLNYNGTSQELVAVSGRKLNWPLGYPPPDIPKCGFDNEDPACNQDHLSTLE
Method: Surface plasmon resonance (SPR) measurements were performed at 25° C. on a BI-4500 SPR instrument (Biosensing Instrument Inc. Tempe AZ). As per the instructions by the Biosensing instrument manual, 400 mM nickel sulfate in deionized water was linked to the Ni-NTA sensor chip (Biosensing Instrument Inc. Tempe AZ. Then 30 μg/ml of extracellular domain human GC-A recombinant protein (My BioSource, Inc. San Diego, CA), containing 12 histidine residues on the C-terminus, was then immobilized to the nickel sulfate on the Ni-NTA sensor chip. After, the chip was washed with buffer (150 mM NaCl, 50 μM EDTA pH 7.4, 0).1% DMSO), then 100 μL of sequentially diluted Compound 3 acetate salt (0.125, 0.25, 0.5, 1, 2 μM), Compound 1 acetate salt (6.25, 12.5, 25, 50, 100 nM) or Compound 2 acetate salt (0.125, 0.25, 0.5, 1, 2 μM) was injected at the rate of 60 ul/min and allowed to dissociate for 60 seconds. Data was collected as sensorgrams. Binding kinetics were derived from sensorgrams using BI-Data Analysis Program (Biosensing Instrument, Tempe AZ). Affinity analysis of GC-A with Compound 3, Compound 2 and/or Compound 1 interactions were performed using a 1:1 Langmuir binding model. Two series were performed for all studies.

human pGC-A = target: T2, human pGC-A (Homo sapiens, UniProt P16066); assay: Positive allosteric modulation of pGC-A-mediated cGMP production, HTRF competition assay (Example 1); assay type: cell-based; details: free base; for EC50: HEK 293 human pGC-A expressing cells, presence of EC30 ANP (1.3 pM), average of 3 independent experiments, read-out: pEC50 cGMP response (converted)
T2 construct: expressed in transfected cells; host or cells: HEK293
T2 sequence (P16066 33-1061): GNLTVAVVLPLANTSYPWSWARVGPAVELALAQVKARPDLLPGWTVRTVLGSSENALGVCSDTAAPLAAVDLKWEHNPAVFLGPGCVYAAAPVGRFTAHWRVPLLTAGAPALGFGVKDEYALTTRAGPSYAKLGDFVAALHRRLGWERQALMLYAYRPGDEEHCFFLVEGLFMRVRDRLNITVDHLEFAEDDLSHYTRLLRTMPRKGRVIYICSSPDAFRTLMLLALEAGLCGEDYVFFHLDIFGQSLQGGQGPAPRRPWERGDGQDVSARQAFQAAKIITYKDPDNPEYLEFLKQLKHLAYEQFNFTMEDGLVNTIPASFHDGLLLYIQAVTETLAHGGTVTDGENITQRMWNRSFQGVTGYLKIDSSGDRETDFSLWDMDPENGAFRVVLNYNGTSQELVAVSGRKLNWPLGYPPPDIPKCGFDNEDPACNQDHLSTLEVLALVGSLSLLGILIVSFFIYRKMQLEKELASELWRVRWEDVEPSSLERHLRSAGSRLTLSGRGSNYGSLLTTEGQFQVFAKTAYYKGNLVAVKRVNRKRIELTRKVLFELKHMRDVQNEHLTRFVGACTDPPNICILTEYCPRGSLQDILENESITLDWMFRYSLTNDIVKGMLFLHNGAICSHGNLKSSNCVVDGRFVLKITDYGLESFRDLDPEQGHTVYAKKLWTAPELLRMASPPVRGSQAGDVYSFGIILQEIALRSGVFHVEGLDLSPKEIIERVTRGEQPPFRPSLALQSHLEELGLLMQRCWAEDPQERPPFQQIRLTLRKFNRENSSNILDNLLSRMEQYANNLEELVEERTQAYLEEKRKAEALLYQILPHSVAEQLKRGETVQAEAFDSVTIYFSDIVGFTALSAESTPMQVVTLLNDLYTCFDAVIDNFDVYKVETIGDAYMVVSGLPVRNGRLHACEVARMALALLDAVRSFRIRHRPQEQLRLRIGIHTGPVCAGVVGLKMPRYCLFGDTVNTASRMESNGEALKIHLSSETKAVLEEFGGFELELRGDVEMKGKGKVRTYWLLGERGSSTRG
T2 sequence (P01160 124-151 partner limits assumed): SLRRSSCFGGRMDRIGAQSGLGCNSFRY
Method: Test compounds at 10 mM DMSO stock concentration were added to 384 well assay plates using Tecan dispenser starting at 40 μM concentration and diluted 2-fold for 10-point concentration-response curves. Wells were backfilled with DMSO such that the final concentration of DMSO in all wells was maintained at 0.3% DMSO. Positive allosteric modulation (presence of EC30 concentration of ANP at 1.3 pM) of pGC-A-mediated activation of cGMP production was measured in human pGC-A overexpressing HEK293 cells by homogenous time-resolved florescence (HTRF) competition assay using cGMP CisBio detection kit (Cat #: 62GM2PEC). Enantiomerically pure(S)-N-(4,6-difluorobenzo[d]thiazol-2-yl)-1-(2-(dimethylamino)ethyl) piperidine-3-carboxamide and (R)-N-(4,6-difluorobenzo[d]thiazol-2-yl)-1-(2-(dimethylamino)ethyl) piperidine-3-carboxamide were individually synthesized from enantiomerically pure starting materials (R- and S-nipecotic acid).

Compound | Kd [1] [nM] | kon [1] [M⁻¹ s⁻¹] | koff [1] [s⁻¹] | EC50 (human pGC-A) [nM] | fold more potent than the R-enantiomer (compound 2) (human pGC-A; presence of ANP) [fold]
CN(C)CCN1CCCC(C(=O)Nc2nc3c(F)cc(F)cc3s2)C1 (racemic) [Compound 3, N-(4,6-difluorobenzo[d]thiazol-2-yl)-1-(2-(dimethylamino)ethyl) piperidine-3-carboxamide] | 176 | 113000 | 0.02 |  | 
CN(C)CCN1CCC[C@H](C(=O)Nc2nc3c(F)cc(F)cc3s2)C1 [Compound 1, (S)-N-(4,6-difluorobenzo[d]thiazol-2-yl)-1-(2-(dimethylamino)ethyl) piperidine-3-carboxamide] | 12 | 1.09e+06 | 0.014 | 398 | 3.5
CN(C)CCN1CCC[C@@H](C(=O)Nc2nc3c(F)cc(F)cc3s2)C1 [Compound 2, (R)-N-(4,6-difluorobenzo[d]thiazol-2-yl)-1-(2-(dimethylamino)ethyl) piperidine-3-carboxamide] | 121 | 430000 | 0.052 | 1260 | 
